Laboratory results: patent US9308187B2, “Adhesive patch comprising diclofenac sodium” (HISAMITSU PHARMACEUTICAL CO., INC., priority 2012, dated 2016)
Like-named read-outs stand apart in the source and are kept apart here.

Assay: Solubilities in a variety of solubilizers
Assay type: physicochemical
Conditions: organic solvent or mixture
Procedure: Thus, in order to search for components which suppress the time-dependent crystallization of diclofenac and diclofenac sodium and which can comprise diclofenac sodium in the adhesive layer at a high concentration (3% by mass or greater) of diclofenac, the solubilities of diclofenac and diclofenac sodium were measured in a variety of solubilizers.

Measured: solubility

O=C(O)Cc1ccccc1Nc1c(Cl)cccc1Cl [diclofenac]
≥ 100 mg/mL: N-methylpyrrolidone (NMP), solvent N-methylpyrrolidone, read-out: solubility in N-methylpyrrolidone (NMP) | dimethyl sulfoxide (DMSO), solvent dimethyl sulfoxide, read-out: solubility in dimethyl sulfoxide (DMSO) | dipropylene glycol (DPG), solvent dipropylene glycol, read-out: solubility in dipropylene glycol (DPG) | polyethylene glycol (PEG-400), solvent polyethylene glycol, read-out: solubility in polyethylene glycol (PEG-400)
